pIC50: −log10 of the molar value. Like-named read-outs stand apart in the source and are kept apart here.
Experiments:
Assay in all cases: P450-Glo inhibition assay, recombinant CYP
Assay type in all cases: biochemical
CYP2C19 = molecular target: T1, CYP2C19 (Homo sapiens, UniProt P33261)
T1 construct: recombinant CYP450, commercial (Research Institute for Liver Diseases, Shanghai); P450-Glo Screening System (Promega)

CYP1A2 = molecular target: T2, CYP1A2 (Homo sapiens, UniProt P05177)
T2 construct: recombinant CYP450, commercial (Research Institute for Liver Diseases, Shanghai); P450-Glo Screening System (Promega)
T2 sequence (P05177 2-516): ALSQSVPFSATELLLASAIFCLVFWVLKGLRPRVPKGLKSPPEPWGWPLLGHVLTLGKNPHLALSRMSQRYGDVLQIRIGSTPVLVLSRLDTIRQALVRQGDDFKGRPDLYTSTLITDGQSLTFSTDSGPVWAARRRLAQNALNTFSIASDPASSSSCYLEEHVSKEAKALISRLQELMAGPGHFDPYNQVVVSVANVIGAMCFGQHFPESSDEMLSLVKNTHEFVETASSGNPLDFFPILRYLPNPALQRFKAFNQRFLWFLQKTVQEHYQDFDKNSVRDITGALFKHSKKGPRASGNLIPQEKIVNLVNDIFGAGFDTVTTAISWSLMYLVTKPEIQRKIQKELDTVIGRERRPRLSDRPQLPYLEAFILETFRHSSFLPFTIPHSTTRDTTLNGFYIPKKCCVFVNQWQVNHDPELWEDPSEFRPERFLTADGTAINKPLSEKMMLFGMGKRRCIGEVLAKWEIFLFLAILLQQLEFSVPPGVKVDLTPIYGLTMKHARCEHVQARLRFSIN

CYP2C9 = molecular target: T3, CYP2C9 (Homo sapiens, UniProt P11712)
T3 construct: recombinant CYP450, commercial (Research Institute for Liver Diseases, Shanghai); P450-Glo Screening System (Promega)

CYP2D6 = molecular target: T4, CYP2D6 (Homo sapiens, UniProt P10635)
T4 construct: recombinant CYP450, commercial (Research Institute for Liver Diseases, Shanghai); P450-Glo Screening System (Promega)

CYP3A4 = molecular target: T5, CYP3A4 (Homo sapiens, UniProt P08684); conditions: read-out: IC50 (μM) (95% Confidence Interval) / Isoimperatorin
T5 construct: recombinant CYP450, commercial (Research Institute for Liver Diseases, Shanghai); P450-Glo Screening System (Promega)

[1] = read-out: IC50 (μM) (95% Confidence Interval) / Isoimperatorin

T4 sequence (P10635 whole entry): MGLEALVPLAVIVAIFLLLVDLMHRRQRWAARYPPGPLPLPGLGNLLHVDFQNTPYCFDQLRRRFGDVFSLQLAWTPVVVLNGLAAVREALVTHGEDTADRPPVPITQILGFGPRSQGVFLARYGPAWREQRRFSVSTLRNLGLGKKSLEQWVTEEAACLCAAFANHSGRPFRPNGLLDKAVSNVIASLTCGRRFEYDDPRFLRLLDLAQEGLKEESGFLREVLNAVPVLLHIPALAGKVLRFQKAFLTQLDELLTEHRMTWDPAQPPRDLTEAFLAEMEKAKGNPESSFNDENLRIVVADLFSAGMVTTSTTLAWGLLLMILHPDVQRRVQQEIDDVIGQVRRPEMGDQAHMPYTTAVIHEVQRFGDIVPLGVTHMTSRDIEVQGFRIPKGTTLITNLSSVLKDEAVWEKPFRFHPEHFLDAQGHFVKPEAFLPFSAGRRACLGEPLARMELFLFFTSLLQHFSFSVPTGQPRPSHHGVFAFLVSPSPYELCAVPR
T3 sequence (P11712 whole entry): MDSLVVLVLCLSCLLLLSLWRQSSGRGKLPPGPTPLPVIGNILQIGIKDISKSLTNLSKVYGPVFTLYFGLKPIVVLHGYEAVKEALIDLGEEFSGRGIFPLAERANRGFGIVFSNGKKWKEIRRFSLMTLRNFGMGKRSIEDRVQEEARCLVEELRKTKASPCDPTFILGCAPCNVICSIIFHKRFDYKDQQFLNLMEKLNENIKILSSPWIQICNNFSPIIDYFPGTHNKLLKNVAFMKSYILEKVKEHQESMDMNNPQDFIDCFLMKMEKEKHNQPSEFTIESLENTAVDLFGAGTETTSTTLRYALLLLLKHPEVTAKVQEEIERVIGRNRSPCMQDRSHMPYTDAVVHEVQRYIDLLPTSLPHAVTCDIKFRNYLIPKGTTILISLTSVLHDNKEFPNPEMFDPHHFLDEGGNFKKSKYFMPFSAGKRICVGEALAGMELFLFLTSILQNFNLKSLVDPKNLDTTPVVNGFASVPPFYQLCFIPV
T1 sequence (P33261 whole entry): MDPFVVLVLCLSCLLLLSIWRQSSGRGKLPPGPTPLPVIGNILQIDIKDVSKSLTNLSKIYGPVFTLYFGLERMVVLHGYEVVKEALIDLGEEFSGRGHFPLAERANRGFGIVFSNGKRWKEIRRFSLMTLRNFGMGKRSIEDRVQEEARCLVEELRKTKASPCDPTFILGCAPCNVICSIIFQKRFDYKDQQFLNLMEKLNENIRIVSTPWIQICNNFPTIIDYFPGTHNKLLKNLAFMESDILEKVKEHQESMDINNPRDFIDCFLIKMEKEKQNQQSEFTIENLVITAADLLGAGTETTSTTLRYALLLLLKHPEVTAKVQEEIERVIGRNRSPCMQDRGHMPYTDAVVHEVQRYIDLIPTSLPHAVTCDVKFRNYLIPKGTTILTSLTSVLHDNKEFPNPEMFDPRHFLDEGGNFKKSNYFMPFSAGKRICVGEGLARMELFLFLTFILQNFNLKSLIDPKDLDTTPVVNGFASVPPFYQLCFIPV
T5 sequence (P08684 2-503): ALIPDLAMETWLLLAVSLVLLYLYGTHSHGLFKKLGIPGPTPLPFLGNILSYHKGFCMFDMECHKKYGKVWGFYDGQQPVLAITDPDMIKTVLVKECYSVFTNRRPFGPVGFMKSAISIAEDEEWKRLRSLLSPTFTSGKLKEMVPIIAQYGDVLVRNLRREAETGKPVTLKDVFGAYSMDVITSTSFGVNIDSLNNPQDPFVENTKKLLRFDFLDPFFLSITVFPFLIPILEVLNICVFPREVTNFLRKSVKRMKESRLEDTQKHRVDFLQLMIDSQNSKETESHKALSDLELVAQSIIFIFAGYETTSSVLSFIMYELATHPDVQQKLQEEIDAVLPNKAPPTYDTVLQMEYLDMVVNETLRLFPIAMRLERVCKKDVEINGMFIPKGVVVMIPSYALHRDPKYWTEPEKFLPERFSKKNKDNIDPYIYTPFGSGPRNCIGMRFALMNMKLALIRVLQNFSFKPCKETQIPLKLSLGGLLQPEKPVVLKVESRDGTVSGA

| IC50 (CYP2C19; [1]) | IC50 (CYP3A4) | IC50 (CYP1A2; [1]) | IC50 (CYP2C9; [1]) | IC50 (CYP2D6; [1]) | Compound | pIC50 (CYP2C19) | pIC50 (CYP1A2) | pIC50 (CYP2C9) | pIC50 (CYP2D6) |
| --- | --- | --- | --- | --- | --- | --- | --- | --- | --- |
|  |  |  |  |  | CC(C)=CCOc1c2occc2cc2ccc(=O)oc12 [imperatorin] | 4.08 | 7.10 | 5.32 | 5.04 |
| 19.6 µM | 1.47 µM | 8.26 µM | 5.69 µM | 1.56 µM | CC(C)=CCOc1c2ccoc2cc2oc(=O)ccc12 [isoimperatorin] |  |  |  |  |
